# Values of other authors as cited in patent publication US20190201417A1, “TOPICAL STEROID THERAPY FOR MUCOSAL AND DERMATOLOGICAL INFLAMMATORY DISEASE” (CINRX PHARMA, LLC, priority 2016, published 2019).
# Like-named read-outs stand apart in the source and are kept apart here.
# Experiments:
# Caco-2 cell monolayers = details: coadministration with chitosan glutamate
# [1] = rats, nasal application with chitosan glutamate
# [2] = sheep, nasal application with chitosan glutamate
compound,measurement,setting,value
9-desglycinamide-8-arginine vasopressin [DGAVP],transport of the peptide drug,Caco-2 cell monolayers,increased markedly
CCNC(=O)[C@@H]1CCCN1C(=O)[C@H](CCCNC(=N)N)NC(=O)[C@H](CC(C)C)NC(=O)[C@@H](COC(C)(C)C)NC(=O)[C@H](Cc1ccc(O)cc1)NC(=O)[C@H](CO)NC(=O)[C@H](Cc1c[nH]c2ccccc12)NC(=O)[C@H](Cc1cnc[nH]1)NC(=O)[C@@H]1CCC(=O)N1 [buserelin],absolute bioavailability of buserelin,intraduodenal application with chitosan hydrochloride in a gel formulation,5.1±1.5%
same,absolute bioavailability of buserelin,"intraduodenal application, baseline without chitosan hydrochloride",0.1±0.1%
insulin,blood glucose levels,[1],significant reduction
same,blood glucose levels,[2],significant reduction
